Key:
[1] = human gut metagenome, 24 h, 2 µM
[2] = (§1) The drug is tested on Z-021 corresponding to metagenome with ENA study accession number: PRJEB37062 and ENA sample accession number: ERS12561820 for biotransformation under anaerobic condition. The drug concentrations were measured over 9 timepoints collected between 0 and 24 hours of incubation by liquid-chromatography-coupled mass spectrometry (LC–MS); conditions: 2 µM
[3] = (§2) The drug is tested on WLS-170 corresponding to human gut metagenome with ENA study accession number: PRJEB37062 and ENA sample accession number: ERS12561762 for biotransformation under anaerobic condition. The drug concentrations were measured over 9 timepoints collected between 0 and 24 hours of incubation by liquid-chromatography-coupled mass spectrometry (LC–MS); conditions: 2 µM
[4] = human gut metagenome, 24 h, 2 µM; remark: listed apart in the source
[5] = human gut metagenome, 24 h, 2 µM; remark: listed apart in the source
[6] = as §1, with “Z-012” for “Z-021”, “ERS12561812” for “ERS12561820”; conditions: 2 µM
[7] = as §2, with “WLS-350” for “WLS-170”, “ERS12561789” for “ERS12561762”; conditions: 2 µM
[8] = as §2, with “Z-001” for “WLS-170”, “mouse” for “human”, “ERS12561801” for “ERS12561762”; conditions: 2 µM
[9] = human gut metagenome, 24 h, 2 µM; remark: listed apart in the source
[10] = human gut metagenome, 24 h, 2 µM; remark: listed apart in the source
[11] = human gut metagenome, 24 h, 2 µM; remark: listed apart in the source
[12] = human gut metagenome, 24 h, 2 µM; remark: listed apart in the source
[13] = as §2, with “Z-002” for “WLS-170”, “rabbit” for “human”, “ERS12561802” for “ERS12561762”; conditions: 2 µM
[14] = as §2, with “Z-007” for “WLS-170”, “rat” for “human”, “ERS12561807” for “ERS12561762”; conditions: 2 µM
[15] = as §2, with “Z-017” for “WLS-170”, “mouse” for “human”, “ERS12561816” for “ERS12561762”; conditions: 2 µM
[16] = human gut metagenome, 24 h, 2 µM; remark: listed apart in the source
[17] = human gut metagenome, 24 h, 2 µM; remark: listed apart in the source
[18] = as §2, with “WLS-027” for “WLS-170”, “ERS12561744” for “ERS12561762”; conditions: 2 µM
[19] = human gut metagenome, 24 h, 2 µM; remark: listed apart in the source
[20] = as §2, with “WLS-052” for “WLS-170”, “ERS12561747” for “ERS12561762”; conditions: 2 µM
Also: call rule not given here.

Structure (SMILES) | Bacterial Biotransformation [1] | Bacterial Biotransformation [2] | Bacterial Biotransformation [3] | Bacterial Biotransformation [4] | Bacterial Biotransformation [5] | Bacterial Biotransformation [6] | Bacterial Biotransformation [7] | Bacterial Biotransformation [8] | Bacterial Biotransformation [9] | Bacterial Biotransformation [10] | Bacterial Biotransformation [11] | Bacterial Biotransformation [12] | Bacterial Biotransformation [13] | Bacterial Biotransformation [14] | Bacterial Biotransformation [15] | Bacterial Biotransformation [16] | Bacterial Biotransformation [17] | Bacterial Biotransformation [18] | Bacterial Biotransformation [19] | Bacterial Biotransformation [20]
Nc1ccc(/N=N/c2ccccc2)c(N)n1 [PHENAZOPYRIDINE] | Compound metabolized | Compound metabolized | Compound metabolized | Compound metabolized | Compound metabolized | Compound metabolized | Compound metabolized | Compound metabolized | Compound metabolized | Compound metabolized | Compound metabolized | Compound NOT metabolized | Compound metabolized | Compound metabolized | Compound metabolized | Compound metabolized | Compound metabolized | Compound metabolized | Compound metabolized | Compound metabolized
CC(C(=O)O)c1ccc2c(c1)Cc1cccnc1O2 (stereo not given) [PRANOPROFEN] | Compound metabolized | Compound metabolized | Compound metabolized | Compound metabolized | Compound metabolized | Compound metabolized | Compound metabolized | Compound metabolized | Compound metabolized | Compound metabolized | Compound metabolized | Compound metabolized | Compound metabolized | Compound NOT metabolized | Compound NOT metabolized | Compound metabolized | Compound metabolized | Compound metabolized | Compound metabolized | Compound metabolized
CCc1nc(N)nc(N)c1-c1ccc(Cl)cc1 [PYRIMETHAMINE] | Compound metabolized | Compound NOT metabolized | Compound NOT metabolized | Compound NOT metabolized | Compound metabolized | Compound NOT metabolized | Compound NOT metabolized | Compound NOT metabolized | Compound NOT metabolized | Compound NOT metabolized | Compound NOT metabolized | Compound NOT metabolized | Compound metabolized | Compound NOT metabolized | Compound NOT metabolized | Compound NOT metabolized | Compound NOT metabolized | Compound NOT metabolized | Compound metabolized | Compound NOT metabolized

Further lines, results first:

Bacterial Biotransformation [1] | Bacterial Biotransformation [2] | Bacterial Biotransformation [3] | Bacterial Biotransformation [4] | Bacterial Biotransformation [5] | Bacterial Biotransformation [6] | Bacterial Biotransformation [7] | Bacterial Biotransformation [8] | Bacterial Biotransformation [9] | Bacterial Biotransformation [10] | Bacterial Biotransformation [11] | Bacterial Biotransformation [12] | Bacterial Biotransformation [13] | Bacterial Biotransformation [14] | Bacterial Biotransformation [15] | Bacterial Biotransformation [16] | Bacterial Biotransformation [17] | Bacterial Biotransformation [18] | Bacterial Biotransformation [19] | Bacterial Biotransformation [20] | Structure (SMILES)
Compound NOT metabolized | Compound metabolized | Compound NOT metabolized | Compound NOT metabolized | Compound NOT metabolized | Compound NOT metabolized | Compound NOT metabolized | Compound NOT metabolized | Compound NOT metabolized | Compound NOT metabolized | Compound NOT metabolized | Compound NOT metabolized | Compound metabolized | Compound NOT metabolized | Compound NOT metabolized | Compound NOT metabolized | Compound NOT metabolized | Compound NOT metabolized | Compound NOT metabolized | Compound NOT metabolized | COc1ccccc1OCC(O)CN1CCN(CC(=O)Nc2c(C)cccc2C)CC1 (stereo not given) [RANOLAZINE]
Compound metabolized | Compound NOT metabolized | Compound metabolized | Compound NOT metabolized | Compound NOT metabolized | Compound NOT metabolized | Compound NOT metabolized | Compound NOT metabolized | Compound NOT metabolized | Compound NOT metabolized | Compound metabolized | Compound NOT metabolized | Compound NOT metabolized | Compound NOT metabolized | Compound NOT metabolized | Compound NOT metabolized | Compound metabolized | Compound NOT metabolized | Compound NOT metabolized | Compound NOT metabolized | CCCc1nn(C)c2c(=O)[nH]c(-c3cc(S(=O)(=O)N4CCN(C)CC4)ccc3OCC)nc12.O=C(O)CC(O)(CC(=O)O)C(=O)O [SILDENAFIL CITRATE]
Compound NOT metabolized | Compound metabolized | Compound NOT metabolized | Compound NOT metabolized | Compound NOT metabolized | Compound NOT metabolized | Compound metabolized | Compound NOT metabolized | Compound NOT metabolized | Compound NOT metabolized | Compound NOT metabolized | Compound NOT metabolized | Compound NOT metabolized | Compound NOT metabolized | Compound NOT metabolized | Compound NOT metabolized | Compound NOT metabolized | Compound NOT metabolized | Compound NOT metabolized | Compound NOT metabolized | CN1C(C(=O)Nc2ccccn2)=C(O)c2sccc2S1(=O)=O [TENOXICAM]
Compound metabolized | Compound NOT metabolized | Compound NOT metabolized | Compound NOT metabolized | Compound metabolized | Compound NOT metabolized | Compound metabolized | Compound NOT metabolized | Compound NOT metabolized | Compound NOT metabolized | Compound NOT metabolized | Compound NOT metabolized | Compound metabolized | Compound NOT metabolized | Compound NOT metabolized | Compound metabolized | Compound metabolized | Compound metabolized | Compound metabolized | Compound NOT metabolized | O=c1n(CCCN2CCN(c3cccc(Cl)c3)CC2)nc2ccccn12 [TRAZODONE]
